Reference: patent publication US11834448B2, “2-amino-quinoline derivatives” (BIRDIE BIOPHARMACEUTICALS, INC., priority 2017, dated 2023)

Assays:
[1] = test system: Human PBMCs; assay: Cytokine production in PBMCs: human IFN-α by ELISA; type: cell-based; parameters: key: ″+″ means that there was production of IFNa or IL-6 on PBMC; ″−″means that noproduction of IFNa or IL-6 on PBMC was detected; conditions: compounds tested at concentration of 10 uM; human PBMCs cultured 20-22 hours; supernatant ELISA
Method: (§1) The compound functionality was tested for some of the compounds prepared by stimulation and determination of cytokine production in PBMCs.
(§2) Human PBMCs were prepared from buffy coat obtained from healthy volunteer donor by Ficoll centrifugation and were adjusted to the final cell concentration to 1×10^6 cells/mL.
(§3) For evaluation of compound activities, 1×10^5 PBMCs were plated in a 96-well plate in 100 μl of RPMI 1640 complete medium (cat no. 31800-022, GIBCO by Life Technologies, Grand Island, NY, USA) supplemented with 10% fetal bovine serum, the tested compound was first dissolved in DMSO and further diluted in PBS and RPMI 1640 medium to the final concentration of […] (corresponding to 6.28 μg/mL), then 3-fold serially dilution was made in a 96-well round-bottom plate. 100 μl diluted compound was added to the same volume of 1×10^5 PBMCs plate and cultured for 20-22 hours at 37° C. in a humidified atmosphere of 5% CO2. The supernatant was collected for human IFN-α, IL12(p70) and IL-6 analysis by ELISA assay according to the manufacturer's instructions (Mabtech AB, Sweden). Resiquimod was used as a positive control.

[2] = test system: Human PBMCs; assay: Cytokine production in PBMCs: human IL-6 by ELISA; type: cell-based; parameters: key: ″+″ means that there was production of IFNa or IL-6 on PBMC; ″−″means that noproduction of IFNa or IL-6 on PBMC was detected; conditions: compounds tested at concentration of 10 uM; human PBMCs cultured 20-22 hours; supernatant ELISA
Method: as §1, §2, §3

Row | SMILES | Production of IFNa on PBMC [1] | Production of IL−6 on PBMC [2]
1 | CCOCc1nc2c(N)nc3cccc(OC)c3c2n1CC(C)(C)O [Compound 1, 1-(4-amino-2-(ethoxymethyl)-9-methoxy-1H-imidazo[4,5-c]quinolin-1-yl)-2-methylpropan-2-ol] | + | +
2 | CCOCc1nc2c(N)nc3cccc(OCCOC(C)C)c3c2n1C [Compound 16, 2-(ethoxymethyl)-9-(2-isopropoxyethoxy)-1-methyl-1H-imidazo[4,5-c]quinolin-4-amine] | + | +
3 | CCCCCCCCCCCCCCCC(=O)NCCCCOc1cccc2nc(N)c3nc(COCC)n(C)c3c12 [Compound 35, N-(4-((4-amino-2-(ethoxymethyl)-1-methyl-1H-imidazo[4,5-c]quinolin-9-yl)oxy)butyl)palmitamide] | + | +
4 | CCOCc1nc2c(N)nc3cccc(OC)c3c2n1CCOC(C)C [Compound 13, 2-(ethoxymethyl)-1-(2-isopropoxyethyl)-9-methoxy-1H-imidazo[4,5-c]quinolin-4-amine] | + | +
5 | CCOCc1nc2c(N)nc3cccc(OCCC(C)C)c3c2n1C [Compound 17, 2-(ethoxymethyl)-9-(isopentyloxy)-1-methyl-1H-imidazo[4,5-c]quinolin-4-amine] | + | +
6 | CCOCc1nc2c(N)nc3cccc(OCCOC(C)C)c3c2[nH]1 [Compound 11, 2-(ethoxymethyl)-9-(2-isopropoxyethoxy)-1H-imidazo[4,5-c]quinolin-4-amine] | + | +
7 | COCCc1nc2c(N)nc3cccc(OC)c3c2n1CC(C)(C)O [Compound 3, 1-(4-amino-9-methoxy-2-(2-methoxyethyl)-1H-imidazo[4,5-c]quinolin-1-yl)-2-methylpropan-2-ol] | − | −
8 | CC(C)CCOc1cccc2nc(N)c3nn(CCC(C)C)cc3c12 [Compound 32, 2-isopentyl-9-(isopentyloxy)-2H-pyrazolo[3,4-c]quinolin-4-amine] | − | −
9 | CCOCc1nc2c(N)nc3cccc(OCCCCNS(C)(=O)=O)c3c2n1C [Compound 22, N-(4-((4-amino-2-(ethoxymethyl)-1-methyl-1H-imidazo[4,5-c]quinolin-9-yl)oxy)butyl)methanesulfonamide] | + | +
10 | CCOCc1nc2c(N)nc3cccc(OCC(C)C)c3c2n1C [Compound 18, 2-(ethoxymethyl)-9-isobutoxy-1-methyl-1H-imidazo[4,5-c]quinolin-4-amine] | + | +
